Where “and” joins values, the source holds several entries; their conditions need not be identical. Equal entries are not always repeated. Inconclusive results and toxic doses are left out. How the source made its calls: active means survival T/C of 150% or more; inactive means T/C below 125% in these data.
Tested on: P388 leukemia ip, CD2F1 mice, survival T/C
Test: NCI In Vivo Anticancer Drug Screen. Data for tumor model P388 Leukemia (intraperitoneal) in CD2F1 (CDF1) mice
Conditions: endpoint: median survival time, higher = longer survival
Summary of the method: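 Mice carrying the transplanted tumor received test compound or vehicle. Survival was recorded in each group, and the value is the treated-group measurement divided by that of the vehicle-treated control group.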

[1] = dose: 50.0 mg/kg/injection, schedule: Q01DX001 (ip), vehicle: Klucel (hydroxypropylcellulose) (HPC)
[2] = dose: 100.0 mg/kg/injection, schedule: Q01DX001 (ip), vehicle: Klucel (hydroxypropylcellulose) (HPC)
[3] = dose: 200.0 mg/kg/injection, schedule: Q01DX001 (ip), vehicle: Klucel (hydroxypropylcellulose) (HPC)
[4] = dose: 100.0 mg/kg/injection, schedule: Q01DX009 (ip), vehicle: Klucel (hydroxypropylcellulose) (HPC)
[5] = dose: 200.0 mg/kg/injection, schedule: Q01DX009 (ip), vehicle: Klucel (hydroxypropylcellulose) (HPC)
[6] = dose: 25.0 mg/kg/injection, schedule: Q01DX005 (ip), vehicle: Klucel (hydroxypropylcellulose) (HPC)
[7] = dose: 50.0 mg/kg/injection, schedule: Q01DX005 (ip), vehicle: Klucel (hydroxypropylcellulose) (HPC)
[8] = dose: 100.0 mg/kg/injection, schedule: Q01DX005 (ip), vehicle: Klucel (hydroxypropylcellulose) (HPC)
[9] = dose: 200.0 mg/kg/injection, schedule: Q01DX005 (ip), vehicle: Klucel (hydroxypropylcellulose) (HPC)
[10] = dose: 60.0 mg/kg/injection, schedule: Q01DX005 (ip), vehicle: saline with Tween-80
[11] = dose: 120.0 mg/kg/injection, schedule: Q01DX005 (ip), vehicle: saline with Tween-80
[12] = dose: 50.0 mg/kg/injection, schedule: Q01DX009 (ip), vehicle: saline
[13] = dose: 50.0 mg/kg/injection, schedule: Q01DX009 (ip), vehicle: saline with Tween-80
[14] = dose: 100.0 mg/kg/injection, schedule: Q01DX009 (ip), vehicle: saline with Tween-80
[15] = dose: 200.0 mg/kg/injection, schedule: Q01DX009 (ip), vehicle: saline with Tween-80
[16] = dose: 100.0 mg/kg/injection, schedule: Q01DX009 (ip), vehicle: saline

Measured: T/C

O=C(NC1=NN(c2ccccc2)C(=O)C1)c1ccccc1
inactive: dose: 9.37 mg/kg/injection, schedule: Q01DX009 (ip), vehicle: saline 101 % of control | dose: 18.75 mg/kg/injection, schedule: Q01DX009 (ip), vehicle: saline 110 % of control | dose: 37.5 mg/kg/injection, schedule: Q01DX009 (ip), vehicle: saline 98 % of control

CCOC(=O)c1c(C2OC(CO)C(O)C2O)cn(C)c1-c1ccccc1 (stereo not drawn)
inactive: [1] 103 % of control | [2] 98 % of control | [3] 98 % of control

Cc1cc(-c2ccc(N3C(=O)CC4(CCCC4)C3=O)c(C)c2)ccc1N1C(=O)CC2(CCCC2)C1=O
inactive: dose: 50.0 mg/kg/injection, schedule: Q01DX009 (ip), vehicle: Klucel (hydroxypropylcellulose) (HPC) 97 % of control | [4] 96 % of control | [5] 96 % of control

[CH3][Sn]([CH3])([n]1nnc2ccccc21)[n]1nnc2ccccc21
inactive: [6] 114 % of control | [7] 115 % of control and 121 % of control | [8] 112 % of control and 115 % of control | [9] 112 % of control

O=C1CCC(=O)N(CNc2cccc(Cc3cccc(NCN4CC(=O)CCC4=O)c3)c2)C1
inactive: [10] 91 % of control | [11] 91 % of control | dose: 240.0 mg/kg/injection, schedule: Q01DX005 (ip), vehicle: saline with Tween-80 89 % of control

OCc1ccc(OCc2ccccc2)c(OCc2ccccc2)c1
inactive: dose: 50.0 mg/kg/injection, schedule: Q04DX003 (ip), vehicle: saline 98 % of control | dose: 100.0 mg/kg/injection, schedule: Q04DX003 (ip), vehicle: saline 98 % of control | dose: 200.0 mg/kg/injection, schedule: Q04DX003 (ip), vehicle: saline 104 % of control | dose: 400.0 mg/kg/injection, schedule: Q04DX003 (ip), vehicle: saline 98 % of control

CCO/C=C1/N=C(Cc2ccc(Br)cc2)OC1=O
inactive: [10] 94 % of control | [11] 90 % of control

COc1cccc(CCCC(=O)O)c1
inactive: [4] 100 % of control | [5] 100 % of control | dose: 400.0 mg/kg/injection, schedule: Q01DX009 (ip), vehicle: Klucel (hydroxypropylcellulose) (HPC) 104 % of control

CCCCCCCCCC[N+](C)(C)CCCO
inactive: dose: 12.5 mg/kg/injection, schedule: Q01DX009 (ip), vehicle: saline 96 % of control | dose: 25.0 mg/kg/injection, schedule: Q01DX009 (ip), vehicle: saline 112 % of control | [12] 118 % of control

COc1cc(C(=O)NN=C2c3ccccc3-c3ccccc32)cc(OC)c1OC
inactive: [13] 93 % of control | [14] 88 % of control | [15] 87 % of control

O=[N+]([O-])c1ccc(/C=C/Sc2ccccc2)o1
inactive: dose: 50.0 mg/kg/injection, schedule: Q01DX009 (ip), vehicle: suspension in saline 99 % of control | dose: 100.0 mg/kg/injection, schedule: Q01DX009 (ip), vehicle: suspension in saline 98 % of control

O=C1c2ccccc2C(=O)N1/N=N/N1C(=O)c2ccccc2C1=O
inactive: [6] 99 % of control | [7] 102 % of control | [8] 110 % of control | [9] 106 % of control

O=C(Nc1ccc(Cl)c(Cl)c1)n1cnc2ccccc21
inactive: dose: 6.25 mg/kg/injection, schedule: Q01DX009 (ip), vehicle: saline 105 % of control and 109 % of control | [13] 98 % of control

NC(=O)CSc1ncnc2nc[nH]c12
inactive: [12] 97 % of control | [16] 100 % of control | dose: 200.0 mg/kg/injection, schedule: Q01DX009 (ip), vehicle: saline 102 % of control

c1ccc(-c2cc3cc4c(cc3[nH]2)Sc2ccccc2O4)cc1
inactive: dose: 110.0 mg/kg/injection, schedule: Q01DX001 (ip), vehicle: Klucel (hydroxypropylcellulose) (HPC) 97 % of control | dose: 220.0 mg/kg/injection, schedule: Q01DX001 (ip), vehicle: Klucel (hydroxypropylcellulose) (HPC) 101 % of control | dose: 440.0 mg/kg/injection, schedule: Q01DX001 (ip), vehicle: Klucel (hydroxypropylcellulose) (HPC) 99 % of control

Cc1ccc(S(=O)CC(O)c2ccccc2)cc1 (stereo not drawn)
inactive: [13] 110 % of control | [14] 101 % of control | [15] 100 % of control

O=C(O)c1cccc(C(=O)O)c1Sc1c(C(=O)O)cccc1C(=O)O
inactive: dose: 100.0 mg/kg/injection, schedule: Q01DX001 (ip), vehicle: saline with Tween-80 99 % of control | dose: 200.0 mg/kg/injection, schedule: Q01DX001 (ip), vehicle: saline with Tween-80 95 % of control | dose: 400.0 mg/kg/injection, schedule: Q01DX001 (ip), vehicle: saline with Tween-80 91 % of control

COC1OC(=O)C(Cl)=C1N=[N+]=[N-] (stereo not drawn)
inactive: dose: 15.0 mg/kg/injection, schedule: Q01DX005 (ip), vehicle: Klucel (hydroxypropylcellulose) (HPC) 105 % of control | dose: 30.0 mg/kg/injection, schedule: Q01DX005 (ip), vehicle: Klucel (hydroxypropylcellulose) (HPC) 102 % of control | dose: 60.0 mg/kg/injection, schedule: Q01DX005 (ip), vehicle: Klucel (hydroxypropylcellulose) (HPC) 109 % of control

CC(c1ccc(N2Cc3ccccc3C2=O)cc1)C(O)C(N)=O (stereo not drawn)
inactive: dose: 50.0 mg/kg/injection, schedule: Q01DX005 (ip), vehicle: saline with Tween-80 89 % of control | dose: 100.0 mg/kg/injection, schedule: Q01DX005 (ip), vehicle: saline with Tween-80 92 % of control | dose: 200.0 mg/kg/injection, schedule: Q01DX005 (ip), vehicle: saline with Tween-80 89 % of control

O=C1OC(C2OC(=O)C(=O)C2C(=O)c2ccc([N+](=O)[O-])cc2)C(C(=O)c2ccc([N+](=O)[O-])cc2)C1=O (stereo not drawn)
inactive: [10] 98 % of control | [11] 94 % of control

C[CH2][Sn]([F])([F])[CH2]C
inactive: dose: 6.25 mg/kg/injection, schedule: Q04DX003 (ip), vehicle: saline 107 % of control | dose: 12.5 mg/kg/injection, schedule: Q04DX003 (ip), vehicle: saline 108 % of control | dose: 25.0 mg/kg/injection, schedule: Q04DX003 (ip), vehicle: saline 116 % of control

O=c1[nH]c(=O)c2nc(-c3ccc(Cl)c(Cl)c3)cnc2[nH]1
inactive: dose: 100.0 mg/kg/injection, schedule: Q01DX001 (ip), vehicle: saline 100 % of control | dose: 200.0 mg/kg/injection, schedule: Q01DX001 (ip), vehicle: saline 116 % of control | dose: 400.0 mg/kg/injection, schedule: Q01DX001 (ip), vehicle: saline 91 % of control

CC(=O)CCC(=O)[O][Bi]([c]1ccccc1)[c]1ccccc1
inactive: [7] 110 % of control | [8] 114 % of control | [9] 114 % of control

O=C1/C(=C/c2ccc3c(c2)OCO3)C2CCC(N2)/C1=C\c1ccc2c(c1)OCO2
inactive: [1] 103 % of control | [2] 96 % of control | [3] 96 % of control

CCCCCCCC1C(=O)OC2CC3C(C)=CC(=O)C(O)C3(C)C3C4(O)OCC23C1C(C)C4O (stereo not drawn)
inactive: dose: 1.25 mg/kg/injection, schedule: Q01DX005 (ip), vehicle: Klucel (hydroxypropylcellulose) (HPC) 107 % of control | dose: 2.5 mg/kg/injection, schedule: Q01DX005 (ip), vehicle: Klucel (hydroxypropylcellulose) (HPC) 108 % of control | dose: 5.0 mg/kg/injection, schedule: Q01DX005 (ip), vehicle: Klucel (hydroxypropylcellulose) (HPC) 107 % of control and 116 % of control | dose: 10.0 mg/kg/injection, schedule: Q01DX005 (ip), vehicle: Klucel (hydroxypropylcellulose) (HPC) 117 % of control and 124 % of control

COC(=O)c1ncn(Cc2ccccc2)c1N
inactive: dose: 25.0 mg/kg/injection, schedule: Q04DX002 (ip), vehicle: saline with Tween-80 101 % of control | dose: 50.0 mg/kg/injection, schedule: Q04DX002 (ip), vehicle: saline with Tween-80 91 % of control | dose: 100.0 mg/kg/injection, schedule: Q04DX002 (ip), vehicle: saline with Tween-80 104 % of control and 93 % of control

CCOC(=O)C(C)NO (stereo not drawn)
inactive: [12] 97 % of control | [16] 94 % of control

O=C1C2C3C=CC(C2C(=O)N1CCl)C1C2C(=O)N(CCl)C(=O)C2C31 (stereo not drawn)
inactive: dose: 6.25 mg/kg/injection, schedule: Q01DX009 (ip), vehicle: saline with Tween-80 105 % of control | dose: 12.5 mg/kg/injection, schedule: Q01DX009 (ip), vehicle: saline with Tween-80 103 % of control | dose: 25.0 mg/kg/injection, schedule: Q01DX009 (ip), vehicle: saline with Tween-80 103 % of control | [13] 107 % of control and 114 % of control | [14] 107 % of control and 116 % of control | [15] 115 % of control

COC(=O)C1Cc2[nH]cnc2C(c2c(CO)cnc(C)c2O)N1 (stereo not drawn)
inactive: [7] 104 % of control | [8] 104 % of control

From PubChem BioAssay AID330 (DTP/NCI, 2004)
